Data reported in patent US20260217765A1, “NOVEL ANTIMICROBIAL PEPTIDE DESIGNED FROM DUCK-DERIVED ANTIMICROBIAL PEPTIDE ANDUSE THEREOF” (INDUSTRY-ACADEMIC COOPERATION FOUNDATION, CHOSUN UNIVERSITY, priority 2023, published 2026).
≈ marks a conversion by molar mass, not a printed value. Peptide text beside a SMILES is read from it.

Experiments:
[1] = system: Acinetobacter baumannii_isolate 10 (antibiotic-resistant); format: cell-based, Acinetobacter baumannii; conditions: isolate 10 (antibiotic-resistant)
Text: (§1) To compare the antimicrobial activity of the peptides prepared in <Example 1>, the minimum inhibitory concentration (MIC), […] measured. Here, the minimal inhibitory concentration (MIC) refers to the lowest concentration of a substance that prevents visible bacterial growth.
(§2) Specifically, the bacterial strains listed in Table 2 below were obtained and cultured in media suitable for each strain until the mid-log phase. The cultures were then diluted to a concentration of 2×10^4 cells/100 μL and prepared in microtiter plates (Nunc, USA). Subsequently, serial 2-fold dilutions of the peptides prepared in Example 1 were prepared, and 10 μL of each dilution was added to the wells, and the plates were incubated at 37° C. for 18 hours. Absorbance at 600 nm was measured using a microtiter plate reader (Merck ELISA reader, Germany) to determine the MIC values for each bacterial strain. The parent peptide dCATH was used as a control.

[2] = system: Acinetobacter baumannii_isolate16 (antibiotic-resistant); format: cell-based, Acinetobacter baumannii; conditions: isolate16 (antibiotic-resistant)
Text: as §1, §2

[3] = system: Acinetobacter baumannii_isolate 5 (antibiotic-resistant); format: cell-based, Acinetobacter baumannii; conditions: isolate 5 (antibiotic-resistant)
Text: as §1, §2

[4] = system: Acinetobacter baumannii_isolate11 (antibiotic-resistant); format: cell-based, Acinetobacter baumannii; conditions: isolate11 (antibiotic-resistant)
Text: as §1, §2

[5] = system: Acinetobacter baumannii_isolate 26 (antibiotic-resistant); format: cell-based, Acinetobacter baumannii; conditions: isolate 26 (antibiotic-resistant)
Text: as §1, §2

[6] = system: Acinetobacter baumannii_isolate 17 (antibiotic-resistant); format: cell-based, Acinetobacter baumannii; conditions: isolate 17 (antibiotic-resistant)
Text: as §1, §2

[7] = system: Acinetobacter baumannii_isolate15 (antibiotic-resistant); format: cell-based, Acinetobacter baumannii; conditions: isolate15 (antibiotic-resistant)
Text: as §1, §2

[8] = system: Acinetobacter baumannii_isolate 19 (antibiotic-resistant); format: cell-based, Acinetobacter baumannii; conditions: isolate 19 (antibiotic-resistant)
Text: as §1, §2

[9] = system: Acinetobacter baumannii_isolate 7 (antibiotic-resistant); format: cell-based, Acinetobacter baumannii; conditions: isolate 7 (antibiotic-resistant)
Text: as §1, §2

[10] = system: Acinetobacter baumannii_isolate21 (antibiotic-resistant); format: cell-based, Acinetobacter baumannii; conditions: isolate21 (antibiotic-resistant)
Text: as §1, §2

[11] = system: Acinetobacter baumannii_isolate 23 (antibiotic-resistant); format: cell-based, Acinetobacter baumannii; conditions: isolate 23 (antibiotic-resistant)
Text: as §1, §2

[12] = system: Acinetobacter baumannii_isolate 1 (antibiotic-resistant); format: cell-based, Acinetobacter baumannii; conditions: isolate 1 (antibiotic-resistant)
Text: as §1, §2

[13] = system: Acinetobacter baumannii_isolate 22 (antibiotic-resistant); format: cell-based, Acinetobacter baumannii; conditions: isolate 22 (antibiotic-resistant)
Text: as §1, §2

[14] = system: Acinetobacter baumannii_isolate 6 (antibiotic-resistant); format: cell-based, Acinetobacter baumannii; conditions: isolate 6 (antibiotic-resistant)
Text: as §1, §2

[15] = system: Acinetobacter baumannii_isolate 4 (antibiotic-resistant); format: cell-based, Acinetobacter baumannii; conditions: isolate 4 (antibiotic-resistant)
Text: as §1, §2

[16] = system: Acinetobacter baumannii_isolate 2 (antibiotic-resistant); format: cell-based, Acinetobacter baumannii; conditions: isolate 2 (antibiotic-resistant)
Text: as §1, §2

[17] = system: Acinetobacter baumannii_isolate 9 (antibiotic-resistant); format: cell-based, Acinetobacter baumannii; conditions: isolate 9 (antibiotic-resistant)
Text: as §1, §2

[18] = system: Acinetobacter baumannii_isolate 12 (antibiotic-resistant); format: cell-based, Acinetobacter baumannii; conditions: isolate 12 (antibiotic-resistant)
Text: as §1, §2

[19] = system: Acinetobacter baumannii_isolate 14 (antibiotic-resistant); format: cell-based, Acinetobacter baumannii; conditions: isolate 14 (antibiotic-resistant)
Text: as §1, §2

[20] = system: Acinetobacter baumannii_isolate 18 (antibiotic-resistant); format: cell-based, Acinetobacter baumannii; conditions: isolate 18 (antibiotic-resistant)
Text: as §1, §2

[21] = system: Acinetobacter baumannii_isolate 13 (antibiotic-resistant); format: cell-based, Acinetobacter baumannii; conditions: isolate 13 (antibiotic-resistant)
Text: as §1, §2

[22] = system: Acinetobacter baumannii_isolate 25 (antibiotic-resistant); format: cell-based, Acinetobacter baumannii; conditions: isolate 25 (antibiotic-resistant)
Text: as §1, §2

[23] = system: Acinetobacter baumannii_isolate 3 (antibiotic-resistant); format: cell-based, Acinetobacter baumannii; conditions: isolate 3 (antibiotic-resistant)
Text: as §1, §2

[24] = system: Acinetobacter baumannii_isolate 24 (antibiotic-resistant); format: cell-based, Acinetobacter baumannii; conditions: isolate 24 (antibiotic-resistant)
Text: as §1, §2

[25] = system: Acinetobacter baumannii_isolate 8 (antibiotic-resistant); format: cell-based, Acinetobacter baumannii; conditions: isolate 8 (antibiotic-resistant)
Text: as §1, §2

[26] = system: Acinetobacter baumannii_isolate20 (antibiotic-resistant); format: cell-based, Acinetobacter baumannii; conditions: isolate20 (antibiotic-resistant)
Text: as §1, §2

[27] = system: Bacillus cereus KCTC 2508; format: cell-based
Text: as §1, §2

[28] = system: Listeria monocytogenes KCTC 3710; format: cell-based
Text: as §1, §2

[29] = system: Escherichia coli ATCC 25922; format: cell-based
Text: as §1, §2

[30] = system: Pseudomonas aeruginosa ATCC 27853; format: cell-based
Text: as §1, §2

[31] = system: Acinetobacter baumannii KCTC 1017; format: cell-based; conditions: KCTC 1017
Text: as §1, §2

[32] = system: Staphylococcus aureus ATCC 25923; format: cell-based; conditions: ATCC 25923
Text: as §1, §2

Row | MIC [1] [µM] | MIC [2] [µM] | MIC [3] [µM] | MIC [4] [µM] | MIC [5] [µM] | MIC [6] [µM] | MIC [7] [µM] | MIC [8] [µM] | MIC [9] [µM] | MIC [10] [µM] | MIC [11] [µM] | MIC [12] [µM] | MIC [13] [µM] | MIC [14] [µM] | MIC [15] [µM] | MIC [16] [µM] | MIC [17] [µM] | MIC [18] [µM] | MIC [19] [µM] | MIC [20] [µM] | Structure (SMILES) | also measured
1 | 1 (≈ 2.48 µg/mL) | 1 (≈ 2.48 µg/mL) | 1 (≈ 2.48 µg/mL) | 1 (≈ 2.48 µg/mL) | 1 (≈ 2.48 µg/mL) | 1 (≈ 2.48 µg/mL) | 1 (≈ 2.48 µg/mL) | 1 (≈ 2.48 µg/mL) | 1 (≈ 2.48 µg/mL) | 1 (≈ 2.48 µg/mL) | 1 (≈ 2.48 µg/mL) | 1 (≈ 2.48 µg/mL) | 2 (≈ 4.97 µg/mL) | 1 (≈ 2.48 µg/mL) | 1 (≈ 2.48 µg/mL) | 1 (≈ 2.48 µg/mL) | 1 (≈ 2.48 µg/mL) | 1 (≈ 2.48 µg/mL) | 1 (≈ 2.48 µg/mL) | 1 (≈ 2.48 µg/mL) | CC[C@H](C)[C@H](NC(=O)[C@H](C)NC(=O)[C@H](CCCCN)NC(=O)[C@H](CCCCN)NC(=O)[C@@H](NC(=O)[C@H](CC(C)C)NC(=O)[C@H](CCC(N)=O)NC(=O)[C@H](C)NC(=O)[C@H](C)NC(=O)[C@H](CCCNC(=N)N)NC(=O)[C@@H](N)CCCCN)C(C)C)C(=O)N[C@@H](CCCCN)C(=O)N[C@H](C(=O)N[C@@H](Cc1ccc(O)cc1)C(=O)N[C@@H](CCCNC(=N)N)C(=O)N[C@@H](C)C(=O)N[C@@H](Cc1c[nH]c2ccccc12)C(=O)N[C@@H](CCCCN)C(=O)N[C@@H](CCCNC(=N)N)C(=O)N[C@@H](CCCNC(=N)N)C(N)=O)[C@@H](C)CC [dCATH-A5] (H-KRAAQLVKKAIKIYRAWKRR-NH2; N-terminus assumed) | MIC [21]: 1 µM (≈ 2.48 µg/mL); MIC [22]: 1 µM (≈ 2.48 µg/mL); MIC [23]: 1 µM (≈ 2.48 µg/mL); MIC [24]: 2 µM (≈ 4.97 µg/mL); MIC [25]: 1 µM (≈ 2.48 µg/mL); MIC [26]: 1 µM (≈ 2.48 µg/mL); MIC [27]: 1 µM (≈ 2.48 µg/mL); MIC [28]: 1 µM (≈ 2.48 µg/mL); MIC [29]: 1 µM (≈ 2.48 µg/mL); MIC [30]: 1 µM (≈ 2.48 µg/mL); MIC [31]: 1 µM (≈ 2.48 µg/mL); MIC [32]: 1 µM (≈ 2.48 µg/mL)
2 | 2 (≈ 5.03 µg/mL) | 1 (≈ 2.51 µg/mL) | 1 (≈ 2.51 µg/mL) | 1 (≈ 2.51 µg/mL) | 2 (≈ 5.03 µg/mL) | 1 (≈ 2.51 µg/mL) | 1 (≈ 2.51 µg/mL) | 1 (≈ 2.51 µg/mL) | 1 (≈ 2.51 µg/mL) | 1 (≈ 2.51 µg/mL) | 1 (≈ 2.51 µg/mL) | 2 (≈ 5.03 µg/mL) | 1 (≈ 2.51 µg/mL) | 2 (≈ 5.03 µg/mL) | 2 (≈ 5.03 µg/mL) | 1 (≈ 2.51 µg/mL) | 2 (≈ 5.03 µg/mL) | 1 (≈ 2.51 µg/mL) | 1 (≈ 2.51 µg/mL) | 1 (≈ 2.51 µg/mL) | CC[C@H](C)[C@H](NC(=O)[C@H](C)NC(=O)[C@H](CC(C)C)NC(=O)[C@@H]1CCCN1C(=O)[C@@H](NC(=O)[C@H](CC(C)C)NC(=O)[C@H](CCC(N)=O)NC(=O)[C@H](C)NC(=O)[C@H](Cc1ccccc1)NC(=O)[C@H](CCCNC(=N)N)NC(=O)[C@@H](N)CCCCN)C(C)C)C(=O)N[C@@H](CCCCN)C(=O)N[C@H](C(=O)N[C@@H](Cc1ccc(O)cc1)C(=O)N[C@@H](CCCNC(=N)N)C(=O)N[C@@H](C)C(=O)N[C@@H](Cc1c[nH]c2ccccc12)C(=O)N[C@@H](CCCCN)C(=O)N[C@@H](CCCNC(=N)N)C(=O)N[C@@H](CCCNC(=N)N)C(N)=O)[C@@H](C)CC [dCATH-A2] (H-KRFAQLVPLAIKIYRAWKRR-NH2; N-terminus assumed) | MIC [21]: 1 µM (≈ 2.51 µg/mL); MIC [22]: 1 µM (≈ 2.51 µg/mL); MIC [23]: 1 µM (≈ 2.51 µg/mL); MIC [24]: 1 µM (≈ 2.51 µg/mL); MIC [25]: 1 µM (≈ 2.51 µg/mL); MIC [26]: 1 µM (≈ 2.51 µg/mL); MIC [27]: 1 µM (≈ 2.51 µg/mL); MIC [28]: 2 µM (≈ 5.03 µg/mL); MIC [29]: 2 µM (≈ 5.03 µg/mL); MIC [30]: 2 µM (≈ 5.03 µg/mL); MIC [31]: 1 µM (≈ 2.51 µg/mL); MIC [32]: 1 µM (≈ 2.51 µg/mL)
3 | 4 (≈ 9.87 µg/mL) | 2 (≈ 4.94 µg/mL) | 2 (≈ 4.94 µg/mL) | 2 (≈ 4.94 µg/mL) | 2 (≈ 4.94 µg/mL) | 2 (≈ 4.94 µg/mL) | 2 (≈ 4.94 µg/mL) | 2 (≈ 4.94 µg/mL) | 2 (≈ 4.94 µg/mL) | 2 (≈ 4.94 µg/mL) | 2 (≈ 4.94 µg/mL) | 2 (≈ 4.94 µg/mL) | 2 (≈ 4.94 µg/mL) | 1 (≈ 2.47 µg/mL) | 2 (≈ 4.94 µg/mL) | 2 (≈ 4.94 µg/mL) | 2 (≈ 4.94 µg/mL) | 2 (≈ 4.94 µg/mL) | 2 (≈ 4.94 µg/mL) | 2 (≈ 4.94 µg/mL) | CC[C@H](C)[C@H](NC(=O)[C@H](C)NC(=O)[C@H](CC(C)C)NC(=O)[C@H](CCCCN)NC(=O)[C@@H](NC(=O)[C@H](CC(C)C)NC(=O)[C@H](CCC(N)=O)NC(=O)[C@H](C)NC(=O)[C@H](C)NC(=O)[C@H](CCCNC(=N)N)NC(=O)[C@@H](N)CCCCN)C(C)C)C(=O)N[C@@H](CCCCN)C(=O)N[C@H](C(=O)N[C@@H](Cc1ccc(O)cc1)C(=O)N[C@@H](CCCNC(=N)N)C(=O)N[C@@H](C)C(=O)N[C@@H](Cc1c[nH]c2ccccc12)C(=O)N[C@@H](CCCCN)C(=O)N[C@@H](CCCNC(=N)N)C(=O)N[C@@H](CCCNC(=N)N)C(N)=O)[C@@H](C)CC [dCATH-A4] (H-KRAAQLVKLAIKIYRAWKRR-NH2; N-terminus assumed) | MIC [21]: 2 µM (≈ 4.94 µg/mL); MIC [22]: 2 µM (≈ 4.94 µg/mL); MIC [23]: 2 µM (≈ 4.94 µg/mL); MIC [24]: 2 µM (≈ 4.94 µg/mL); MIC [25]: 2 µM (≈ 4.94 µg/mL); MIC [26]: 2 µM (≈ 4.94 µg/mL); MIC [27]: 2 µM (≈ 4.94 µg/mL); MIC [28]: 2 µM (≈ 4.94 µg/mL); MIC [29]: 2 µM (≈ 4.94 µg/mL); MIC [30]: 2 µM (≈ 4.94 µg/mL); MIC [31]: 2 µM (≈ 4.94 µg/mL); MIC [32]: 2 µM (≈ 4.94 µg/mL)
